Source: patent publication US20260226101A1, “PEPTIDE WITH ANTI-INFLAMMATORY AND ANTI-MICROBIAL ACTIVITY” (priority 2023, published 2026)
Ends that are not written are not given here.

What was measured:
[1] = test system: Escherichia coli ATCC 8739; assay: Time-kill assay; format: cell-based; conditions: E. coli
Protocol: The survival of bacteria, time kill efficacy assay of IS 111 was further evaluated for activity against bacterial strain mentioned above according to CLSI reference method, with slightly modification. MICs were determined by broth microdilution assay as described above. […] Test tubes of MHB without test compound IS 111 were used as vehicle controls. Overnight cultures of the bacterial strains at cell densities of approximately 1×10^8 CFU/ml were used to inoculate both test and control tubes. The standard tube dilution method was opted to evaluate the time-kill efficacy of bacteria. Bacterial inoculum (1 mL) was diluted by adding 9 mL sterile saline solution and serially diluted up to 10^−3. […] 100 μL incubated suspension was transferred on the agar plates and spread through the spreader. Colony counts were performed after 24 h incubation at 37° C. Plates with 10-300 colonies were used for these counts, and the kill rate was determined by plotting log 10 viable counts (CFU/ml) against time. Bactericidal activity was defined as a ≥3 log 10 decreases in CFU/ml of the initial microbial population, while bacteriostatic activity was defined was defined as a <3 log 10 decrease in CFU/ml. The assay was performed in triplicate [Olufunmiso O Olajuyigbe et al., 2015; Sutthiwan Thammawat et al., 2017]
The time-kill kinetics antibacterial study of the Peptide IS 111 was carried out to assess the killing rate of the compound within a given contact time. The survival of bacteria, time kill efficacy assay of IS 111 was further evaluated for activity against Escherichia coli ATCC 8739 and Staphylococcus aureus ATCC 6538, Pseudomonas aeruginosa ATCC 9027 and Klebsiella pneumoniae ATCC 700603 according to CLSI reference method, with slightly modification. MICs were determined by broth microdilution assay as described above. […] 10. Test tubes of MHB without test compound Peptide IS 111 were used as vehicle controls. Overnight cultures of the bacterial strains at cell densities of approximately 1×10^6 CFU/ml were used to inoculate both test and control tubes.
After each interval, ten-fold dilutions were prepared with normal saline, and 100 μL incubated suspension was transferred on the agar plates and spread through the spreader. Colony counts were performed after 24 h incubation at 37° C. Plates with 10-300 colonies were used for these counts, and the kill rate was determined by plotting log 10 viable counts (CFU/ml) against time. Bactericidal activity was defined as a ≥3 log 10 decrease in CFU/ml of the initial microbial population, while bacteriostatic activity was defined as a <3 log 10 decrease in CFU/ml. The assay was performed in triplicate. The proportion of cells surviving at 60 min was calculated, as was the mean and standard deviation. Proportions of surviving cells were compared using Student's 2-tailed t-test, assuming unequal variance and differences were considered significant where p≤0.05.

[2] = test system: LPS-stimulated RAW 264.7 cells; assay: RT-qPCR of cytokine mRNA in LPS-stimulated RAW 264.7 cells; format: cell-based, murine; conditions: vs LPS control
Protocol: Total cellular RNA was isolated using the RNA isoplus reagent (Takara Bioscience, India) following the manufacturer's instructions. RNA was quantified spectrophotometrically by absorption measurements at 260 and 280 nm using the nano drop system.
As per table 8, RNA and the reaction mixture were mixed in PCR a tube and incubated in a thermal cycler for 5 min at 65° C. in and then cooled immediately on ice. Further, in the same tube, the step 2 reaction mixture was added and further incubated in the thermal cycler as mentioned below.
Primers were designed using the Primer3 online tool. GAPDH was used as a normalizing control. The sequence of primers used is provided in below table 10. Real-Time PCR was performed according to the manufacturer's protocol using Takara biosystem's real-time PCR mix (Takara, Bio-India) with ROX as a passive reference dye using applied Biosystem's step-one Real-Time PCR system. The following PCR program was used for all real-time PCR-based experiments: initial denaturation at 95° C. for 2 minutes, followed by 40 cycles of denaturation at 95° C. for 15 seconds, annealing at 60° C. for 30 seconds, extension at 60° C. for 15 seconds.
For quantification of gene expression, CT values of each gene were normalized to GAPDH and calibrated to the appropriate control sample using the SYBR Green-based comparative CT method (2-ΔΔCt). Fold change was calculated using the formula 2-ΔΔct.

Substance: FAKKFAK [IS 111, Phe-Ala-Lys-Lys-Phe-Ala-Lys]
- Viable count ([1]; 0.5 × MIC, 0 h): 6.4 ± 0.48 1 × 10^5 CFU/ml
- Viable count ([1]; 0.5 × MIC, 1 h): 5.5 ± 0.28 1 × 10^5 CFU/ml
- Viable count ([1]; 0.5 × MIC, 2 h): 5.0 ± 0.20 1 × 10^5 CFU/ml
- Viable count ([1]; 0.5 × MIC, 3 h): 4.2 ± 0.10 1 × 10^5 CFU/ml
- Viable count ([1]; 0.5 × MIC, 4 h): 3.7 ± 0.08 1 × 10^5 CFU/ml
- Viable count ([1]; 0.5 × MIC, 5 h): 2.9 ± 0.35 1 × 10^5 CFU/ml
- Viable count ([1]; 0.5 × MIC, 12 h): 2.5 ± 0.35 1 × 10^5 CFU/ml
- Viable count ([1]; 0.5 × MIC, 24 h): 2.3 ± 0.43 1 × 10^5 CFU/ml
- Reduction in viability ([1]; 0.5×MIC (0.78 μg/ml), 24 h): 2 log 10 CFU/ml
- Type of activity (bacteriostatic or bactericidal) ([1]; 0.5×MIC and 1×MIC, 24 h): bacteriostatic
- Viable count ([1]; 1 × MIC, 0 h): 6.5 ± 0.10 1 × 10^5 CFU/ml
- Viable count ([1]; 1 × MIC, 1 h): 4.2 ± 0.45 1 × 10^5 CFU/ml
- Viable count ([1]; 1 × MIC, 2 h): 2.1 ± 0.38 1 × 10^5 CFU/ml
- Viable count ([1]; 1 × MIC, 3 h): 1.2 ± 0.28 1 × 10^5 CFU/ml
- Viable count ([1]; 1 × MIC, 4 h): 0.6 ± 0.20 1 × 10^5 CFU/ml
- Viable count ([1]; 1 × MIC, 5 h): 0.4 ± 0.10 1 × 10^5 CFU/ml
- Viable count ([1]; 1 × MIC, 12 h): 0.2 ± 0.08 1 × 10^5 CFU/ml
- Viable count ([1]; 1 × MIC, 24 h): 0 1 × 10^5 CFU/ml
- Time to complete reduction of initial inoculum ([1]; 1×MIC): 24 h
- Viable count ([1]; 5 × MIC, 0 h): 6.5 ± 0.23 1 × 10^5 CFU/ml
- Viable count ([1]; 5 × MIC, 1 h): 0.5 ± 0.05 1 × 10^5 CFU/ml
- Viable count ([1]; 5 × MIC, 2 h): 0.2 ± 0.05 1 × 10^5 CFU/ml
- Viable count ([1]; 5 × MIC, 3 h): 0 1 × 10^5 CFU/ml
- Viable count ([1]; 5 × MIC, 4 h): 0 1 × 10^5 CFU/ml
- Viable count ([1]; 5 × MIC, 5 h): 0 1 × 10^5 CFU/ml
- Viable count ([1]; 5 × MIC, 12 h): 0 1 × 10^5 CFU/ml
- Viable count ([1]; 5 × MIC, 24 h): 0 1 × 10^5 CFU/ml
- CCL2 mRNA expression ([2]; dose dependent): reduction
- IL-1β mRNA expression [2]: dose dependently reduced
- IL-6 mRNA expression [2]: significant reduction
- TNF-α mRNA expression [2]: significant reduction
